In US20120088746A1, “AMIDE DERIVATIVES AS ION-CHANNEL LIGANDS AND PHARMACEUTICAL COMPOSITIONS AND METHODS OF USING THE SAME” (PFIZER INC., priority 2006, published 2012) one finds IC50 data, which are given here for 25 molecules.

The target of this test is human VR1 (Homo sapiens, UniProt Q8NER1). Description: Acid stimulation assay (acid-induced intracellular calcium change, FDSS 6000). The class given is cell-based. As to conditions: final assay buffer pH5.8, 15 min pre-incubation, read-out: IC50 (nM) Low pH. The text has this:
VR1 antagonistic activity can be determined by the Ca^2+ imaging assay using human VR1 highly expressing cells. The cells that highly express human VR1 receptors are obtainable from several different conventional methods. The one standard method is cloning from human Dorsal Root Ganglion (DRG) or kidney according to the methods such as described in the journal article; Nature, 389, pp 816-824, 1997. Alternatively VR1 receptors highly expressing human keratinocytes are also known and published in the journal article (Biochemical and Biophysical Research Communications, 291, pp 124-129, 2002). […] Furthermore, the method to up regulate human VR1 gene, which is usually a silent gene or don't produce detectable level of VR1 receptors, is also available to obtain propriety cells. Such genetic modification method was described in detail; Nat. Biotechnol., 19, pp 440-445, 2001.
The cells that express human VR1 receptors were maintained in culture flask at 37° C. in an environment containing 5% CO2 until use in the assay. The intracellular Ca^2+ imaging assay to determine VR1 antagonistic activities were done by following procedures.
The culture medium was removed from the flask and fura-2/AM fluorescent calcium indicator was added to the flask at a concentration of 5 μM in the medium. The flask was placed in CO2 incubator and incubated for 1 hour. Then the cells expressing the human VR1 receptors were detached from the flask follow by washing with phosphate buffer saline, PBS(−) and re-suspended in assay buffer. The 80 tit of aliquot of cell suspension (3.75×10^5 cells/ml) was added to the assay plate and the cells were spun down by centrifuge (950 rpm, 20° C., 3 minutes).
The Acid-induced changes in the intracellular calcium concentration were monitored using FDSS 6000 (Hamamatsu Photonics, Japan), a fluorometric imaging system. The cell suspension in resting buffer (HBSS supplemented with 10 mM HEPES, pH 7.4) were pre-incubated with varying concentrations of the test compounds or resting buffer (buffer control) for 15 minutes at room temperature under the dark condition. The cells were automatically added the stimulating solution (HBSS supplemented with MES, final assay buffer pH5.8) by the FDSS 6000.
The Acid-induced changes in the intracellular calcium concentration were monitored using FDSS 6000 (Hamamatsu Photonics, Japan), a fluorometric imaging system. The cell suspension in resting buffer (HBSS supplemented with 10 mM HEPES, pH 7.4) was pre-incubated with varying concentrations of the test compounds or resting buffer (buffer control) for 15 minutes at room temperature under dark conditions. The cells were automatically added to the stimulating solution (HBSS supplemented with MES, final assay buffer pH5.8) by the FDSS 6000.
On the technique in general: A change in cytosolic calcium serves as a functional read-out for many receptors and channels.

human VR1, sequence (Q8NER1 whole entry): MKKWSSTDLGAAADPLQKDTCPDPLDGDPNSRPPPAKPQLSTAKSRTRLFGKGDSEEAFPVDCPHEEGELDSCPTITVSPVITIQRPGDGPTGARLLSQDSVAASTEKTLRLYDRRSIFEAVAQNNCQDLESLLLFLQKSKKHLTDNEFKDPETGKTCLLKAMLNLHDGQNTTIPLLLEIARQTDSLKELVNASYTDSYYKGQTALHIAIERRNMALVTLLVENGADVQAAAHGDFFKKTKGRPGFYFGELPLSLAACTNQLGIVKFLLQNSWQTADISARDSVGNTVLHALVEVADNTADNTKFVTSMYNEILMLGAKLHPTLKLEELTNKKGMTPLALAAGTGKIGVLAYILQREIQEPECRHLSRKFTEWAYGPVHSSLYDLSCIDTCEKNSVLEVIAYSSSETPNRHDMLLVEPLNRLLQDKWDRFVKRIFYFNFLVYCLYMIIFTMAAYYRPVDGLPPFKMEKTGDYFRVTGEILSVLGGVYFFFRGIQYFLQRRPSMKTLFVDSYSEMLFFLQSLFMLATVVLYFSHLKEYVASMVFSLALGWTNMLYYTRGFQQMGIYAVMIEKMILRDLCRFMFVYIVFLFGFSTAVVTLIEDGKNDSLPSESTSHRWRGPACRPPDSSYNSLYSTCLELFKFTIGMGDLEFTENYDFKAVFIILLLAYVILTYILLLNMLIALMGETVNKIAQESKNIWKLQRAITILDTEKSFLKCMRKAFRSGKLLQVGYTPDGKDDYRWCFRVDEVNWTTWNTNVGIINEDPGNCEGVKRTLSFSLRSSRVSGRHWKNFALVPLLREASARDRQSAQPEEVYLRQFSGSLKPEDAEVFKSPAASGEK

What is called IC50 is the concentration at which inhibition is half-maximal. Consider `C[C@@H](NC(=O)c1cnc2cc(C(C)(C)C)ccc2c1)c1ccc(NS(C)(=O)=O)cc1` [Example 41, 7-TERT-BUTYL-N-((1R)-1-{4-[(METHYLSULFONYL)AMINO]PHENYL}ETHYL)QUINOLINE-3-CARBOXAMIDE], for which the IC50 amounted to 29 nM.

With `Cc1cc([C@@H](C)NC(=O)c2cnc3cc(C(C)(C)C)ccc3c2C)ccc1NS(C)(=O)=O` [Example 42, 7-TERT-BUTYL-4-METHYL-N-((1R)-1-{3-METHYL-4-[(METHYLSULFONYL)AMINO]PHENYL}-ETHYL)QUINOLINE-3-CARBOXAMIDE], the IC50 is 532 nM.

Take `Cc1cc([C@@H](C)NC(=O)c2cnc3cc(C(F)(F)F)ccc3c2)c(F)cc1NS(C)(=O)=O` [Example 43, N-((1R)-1-{2-FLUORO-5-METHYL-4-[(METHYLSULFONYL)AMINO]PHENYL}ETHYL)-7-(TRIFLUOROMETHYL)QUINOLINE-3-CARBOXAMIDE]: the IC50 is 30 nM.

On to `CCOc1ccc2cc(C(=O)N[C@H](C)c3ccc(NS(C)(=O)=O)c(C)c3)ccc2n1` [Example 44, 2-ETHOXY-N-((1R)-1-{3-METHYL-4-[(METHYLSULFONYL)AMINO]PHENYL}ETHYL)-QUINOLINE-6-CARBOXAMIDE], for which the IC50 amounted to 15 nM.

Turning to `Cc1cc([C@@H](C)NC(=O)c2ccc3cc(C(F)(F)F)ccc3c2)ccc1NS(C)(=O)=O` [Example 51, N-((1R)-1-{3-METHYL-4-[(METHYLSULFONYL)AMINO]PHENYL}ETHYL)-6-(TRIFLUORO-METHYL)-2-NAPHTHAMIDE], the IC50 amounted to 1 nM.

With `Cc1cc([C@@H](C)NC(=O)c2ccc3cc(C4CC4)ccc3c2)c(Cl)cc1NS(C)(=O)=O` [Example 52, (R)—N-(1-(2-CHLORO-5-METHYL-4-(METHYLSULFONAMIDO)PHENYL)ETHYL)-6-CYCLOPROPYL-2-NAPHTHAMIDE], the IC50 worked out at 22 nM.

On to `Cc1cc([C@@H](C)NC(=O)c2cnc3cc(C(F)(F)F)ccc3c2)c(Cl)cc1NS(C)(=O)=O` [Example 53, (R)—N-(1-(2-CHLORO-5-METHYL-4-(METHYLSULFONAMIDO)PHENYL)ETHYL)-7-(TRIFLUOROMETHYL)QUINOLINE-3-CARBOXAMIDE], for which the IC50 was found to be 36 nM.

For `Cc1cc([C@@H](C)NC(=O)c2ccc3cc(C(F)(F)F)ccc3c2)ncc1NS(C)(=O)=O` [Example 54, N-((1R)-1-{4-METHYL-5-[(METHYLSULFONYL)AMINO]PYRIDIN-2-YL}ETHYL)-6-(TRIFLUOROMETHYL)-2-NAPHTHAMIDE], the IC50 was found to be 12 nM.

Turning to `Cc1cc([C@@H](C)NC(=O)c2ccc3cc(C(F)(F)F)ccc3n2)c(Cl)cc1NS(C)(=O)=O` [Example 57, (R)—N-(1-(2-CHLORO-5-METHYL-4-(METHYLSULFONAMIDO)PHENYL)ETHYL)-6-(TRIFLUOROMETHYL)QUINOLINE-2-CARBOXAMIDE], the IC50 came to 58 nM.

`Cc1cc([C@@H](C)NC(=O)c2ccc3cc(C4(C)CC4)ccc3c2)ncc1NS(C)(=O)=O` [Example 58, (R)—N-(1-(4-METHYL-5-(METHYLSULFONAMIDO)PYRIDIN-2-YL)ETHYL)-6-(1-METHYL-CYCLOPROPYL)-2-NAPHTHAMIDE]: the IC50 came out at 7 nM.

For `Cc1cc([C@@H](C)NC(=O)c2ccc3nc(N4CCCC4)ccc3c2)c(F)cc1NS(C)(=O)=O` [Example 68, (R)—N-(1-(2-FLUORO-5-METHYL-4-(METHYLSULFONAMIDO)PHENYL)ETHYL)-2-(PYRROLIDIN-1-YL)QUINOLINE-6-CARBOXAMIDE], the IC50 was found to be 293 nM.

As for `Cc1cc([C@@H](C)NC(=O)c2ccc3nc(C(F)(F)F)cc(N4CCCCC4)c3c2)c(F)cc1NS(C)(=O)=O` [Example 70, 4-PIPERIDIN-1-YL-2-TRIFLUOROMETHYL-QUINOLINE-6-CARBOXYLIC ACID [(R)-1-(2-FLUORO-4-METHANESULFONYLAMINO-5-METHYL-PHENYL)-ETHYL]-AMIDE], the IC50 worked out at 26 nM.

Regarding `Cc1cc([C@@H](C)NC(=O)c2ccc3nc(C(F)(F)F)cc(N4CCC(F)(F)CC4)c3c2)c(F)cc1NS(C)(=O)=O` [Example 73, 4-(4,4-DIFLUORO-PIPERIDIN-1-YL)-2-TRIFLUOROMETHYL-QUINOLINE-6-CARBOXYLIC ACID [(R)-1-(2-FLUORO-4-METHANESULFONYLAMINO-5-METHYL-PHENYL)-ETHYL]-AMIDE], the IC50 is 29 nM.

For `C[C@@H](NC(=O)c1ccc2cc(C(F)(F)F)ccc2c1)c1ccc(NS(C)(=O)=O)c(CO)c1` [Example 74, N-((1R)-1-{3-(HYDROXYMETHYL)-4-[(METHYLSULFONYL)AMINO]PHENYL}ETHYL)-6-(TRIFLUOROMETHYL)-2-NAPHTHAMIDE], the concentration for half-maximal inhibition (IC50) was found to be 13 nM.

With `Cc1cc([C@@H](C)NC(=O)c2ccc3nc(C(F)(F)F)cc(N4CCC(C(F)(F)F)CC4)c3c2)c(F)cc1NS(C)(=O)=O` [Example 76, 2-TRIFLUOROMETHYL-4-(4-TRIFLUOROMETHYL-PIPERIDIN-1-YL)-QUINOLINE-6-CARBOXYLIC ACID [(R)-1-(2-FLUORO-4-METHANESULFONYLAMINO-5-METHYL-PHENYL)-ETHYL]-AMIDE], the IC50 came to 48 nM.

Take `Cc1cc([C@@H](C)NC(=O)c2ccc3ccc(C(F)(F)F)cc3c2)ccc1NS(C)(=O)=O` [Example 77]: the IC50 amounted to 4 nM.

Consider `Cc1cc([C@@H](C)NC(=O)c2ccc3nc(N4CCOCC4)ccc3c2)c(F)cc1NS(C)(=O)=O` [Example 81, ((R)—N-(1-(2-FLUORO-5-METHYL-4-(METHYLSULFONAMIDO)PHENYL)ETHYL)-2-MORPHOLINOQUINOLINE-6-CARBOXAMIDE], for which the IC50 amounted to 748 nM.

In the case of `Cc1cc([C@@H](C)NC(=O)c2ccc3nc(C(F)(F)F)nc(N4CCCCC4)c3c2)c(F)cc1NS(C)(=O)=O` [Example 84, 4-PIPERIDIN-1-YL-2-TRIFLUOROMETHYL-QUINAZOLINE-6-CARBOXYLIC ACID [(R)-1-(2-FLUORO-4-METHANESULFONYLAMINO-5-METHYL-PHENYL)-ETHYL]-AMIDE], the IC50 stood at 51 nM.

As to `Cc1cc([C@@H](C)NC(=O)c2ccc3nc(C(F)(F)F)nc(N4CCN(c5cccc(Cl)c5)CC4)c3c2)c(F)cc1NS(C)(=O)=O` [Example 85, 4-[4-(3-CHLORO-PHENYL)-PIPERAZIN-1-YL]-2-TRIFLUOROMETHYL-QUINAZOLINE-6-CARBOXYLIC ACID [(R)-1-(2-FLUORO-4-METHANESULFONYLAMINO-5-METHYL-PHENYL)-ETHYL]-AMIDE], the IC50 was determined as 60 nM.

Turning to `Cc1cc([C@@H](C)NC(=O)c2ccc3nc(C(F)(F)F)nc(N4CC(C)OC(C)C4)c3c2)c(F)cc1NS(C)(=O)=O` (stereo partly drawn) [Example 86, 4-(2,6-DIMETHYL-MORPHOLIN-4-YL)-2-TRIFLUOROMETHYL-QUINAZOLINE-6-CARBOXYLIC ACID [(R)-1-(2-FLUORO-4-METHANESULFONYLAMINO-5-METHYL-PHENYL)-ETHYL]-AMIDE], the IC50 came to 7 nM.

Consider `Cc1cc([C@@H](C)NC(=O)c2cnc3cc(C4CC4)cnc3c2)c(F)cc1NS(C)(=O)=O` [Example 87, 7-CYCLOPROPYL-[1.5]NAPHTHYRIDINE-3-CARBOXYLIC ACID [(R)-1-(2-FLUORO-4-METHANESULFONYLAMINO-5-METHYL-PHENYL)-ETHYL]-AMIDE], for which the concentration for half-maximal inhibition (IC50) was 111 nM.

Turning to `COc1ccccc1N1CCN(c2nc(C(F)(F)F)nc3ccc(C(=O)N[C@H](C)c4cc(C)c(NS(C)(=O)=O)cc4F)cc23)CC1` [Example 88, 4-[4-(2-METHOXY-PHENYL)-PIPERAZIN-1-YL]-2-TRIFLUOROMETHYL-QUINAZOLINE-6-CARBOXYLIC ACID [(R)-1-(2-FLUORO-4-METHANESULFONYLAMINO-5-METHYL-PHENYL)-ETHYL]-AMIDE], the half-inhibitory concentration (IC50) was found to be 50 nM.

`Cc1cc([C@@H](C)NC(=O)c2ccc3nc(C(F)(F)F)cc(N4CC[C@@H](O)C4)c3c2)c(F)cc1NS(C)(=O)=O` [Example 90, 4-((R)-3-HYDROXYPYRROLIDIN-1-YL)-2-TRIFLUOROMETHYLQUINOLINE-6-CARBOXYLIC ACID [(R)-1-(2-FLUORO-4-METHANESULFONYLAMINO-5-METHYLPHENYL)ETHYL]AMIDE]: the IC50 was 112 nM.

On to `Cc1cc([C@@H](C)NC(=O)c2ccc3nc(C(F)(F)F)cc(N4CC[C@H](O)C4)c3c2)c(F)cc1NS(C)(=O)=O` [Example 91, 4-((S)-3-HYDROXY-PYRROLIDIN-1-YL)-2-TRIFLUOROMETHYLQUINOLINE-6-CARBOXYLIC ACID [(R)-1-(2-FLUORO-4-METHANESULFONYLAMINO-5-METHYLPHENYL)ETHYL]AMIDE], for which the IC50 was 366 nM.

As for `Cc1cc([C@@H](C)NC(=O)c2ccc3nc(C(F)(F)F)cc(N4CC(F)(F)C4)c3c2)c(F)cc1NS(C)(=O)=O` [Example 92, 4-(3,3-DIFLUOROAZETIDIN-1-YL)-2-TRIFLUOROMETHYLQUINOLINE-6-CARBOXYLIC ACID [(R)-1-(2-FLUORO-4-METHANESULFONYLAMINO-5-METHYLPHENYL)-ETHYL]AMIDE], the IC50 stood at 24 nM.
